Assays:
[1] = system: Wnt/β-catenin signal transduction (β-catenin activity) in HEK293 cell line; assay: Cell based Wnt agonist screening system (Tcf/Lef firefly luciferase reporter) in HEK293 cell line; design: species or system human
Description: (§1) Two kinds of human cancer cell lines HEK293 and SW480 were used to determine the ex vivo activity of the compounds according to one exemplary embodiment of the present invention.
(§2) In order to determine the activity of the wnt/β-catenin signal transduction in each cancer cell line, the present inventors introduced a gene as shown in FIG. 1 into cells, the gene having binding sites (5× TCFs) of Tcf/Lef transcription regulation protein to which β-catenin binds and having a firefly fluorescent protein (firefly luciferase) as a marker that can determine the activity of the Tcf/Lef transcription regulation protein. Then, the present inventors constructed a cell based Wnt agonist screening system by treating the gene-introduced cells with G418 to obtain a single clone of a cell line whose Tcf/Lef transcription regulation protein is continuously expressed due to the introduction of the gene. […]
(§3) When the prepared cell line was treated with lithium chloride (LiCl) that is a positive control in the cell based Wnt agonist screening system as the control for determining the Wnt agonist activity of the isoxazole derivative according to one exemplary embodiment of the present invention, an expression level of the fluorescent protein was measured, and plotted in a graph as shown in FIG. 3. […]

[2] = system: Wnt/β-catenin signal transduction (β-catenin activity) in SW480 cell line; assay: Cell based Wnt agonist screening system (Tcf/Lef firefly luciferase reporter) in SW480 cell line; design: species or system human; settings: Conc. 20000 μM, control that defines 100%
Description: as §1, §2, §3

Structure (SMILES) | Emax at 120 µM ([1]; Homo sapiens, Conc. 120 μM, 24-hour treatment, relative to LiCl 20 mM = 100%, read-out: Relative Max. Activity (%)) [%] | Relative Max. Activity (%) ([1]; Conc. 20000 μM, control that defines 100%) | Relative Max. Activity (%) [2] [%]
Nc1ccc(-c2cc(C(=O)NCCCn3ccnc3)no2)cc1 [Derivative 48, 5-(4-amino-phenyl)-isoxazole-3-carboxylic acid (3-imidazol-1-yl-propyl)-amide] | 246 | – | –
[Cl-].[Li+] [LiCl, lithium chloride, reference compound] | – | 100 | 100

Source: US8518978B2, “Pharmaceutical composition for prevention and treatment of restenosis comprising isoxazole derivatives” (SK Biopharmaceuticals Co., Ltd., priority 2007, dated 2013)
